Data from the NIST ThermoML archive (doi:10.1021/acs.jced.5b00152).

Details: Liquid; for viscosity: Capillary tube (Ostwald / Ubbelohde) method; for mass density: Vibrating tube method

CCCCCC [hexane]
Details | mass density [kg/m3] | viscosity [mPa·s]
293.22 K, 1999 kPa | 661.4 | 0.3196
293.22 K, 3994 kPa | 663.53 | 0.3287
293.22 K, 5999 kPa | 665.43 | 0.339
293.22 K, 8007 kPa | 667.57 | 0.3483
293.22 K, 22004 kPa | 680.38 | 0.4135
293.22 K, 28004 kPa | 685.01 | 0.4427
293.23 K, 10003 kPa | 669.41 | 0.3576
293.23 K, 13000 kPa | 672.26 | 0.3713
293.23 K, 16006 kPa | 675.2 | 0.3851
293.23 K, 19000 kPa | 677.83 | 0.399
293.23 K, 25002 kPa | 682.87 | 0.428
293.23 K, 30001 kPa | 686.72 | 0.4521
313.1 K, 2005 kPa | 643.6 | 0.2614
313.1 K, 3997 kPa | 645.97 | 0.2702
313.1 K, 5999 kPa | 648.24 | 0.2774
313.1 K, 8000 kPa | 650.44 | 0.2853
313.1 K, 9999 kPa | 652.57 | 0.2934
313.1 K, 12997 kPa | 655.73 | 0.305
313.1 K, 15999 kPa | 659 | 0.3165
313.1 K, 18003 kPa | 661.04 | 0.3243
313.1 K, 21999 kPa | 664.77 | 0.3399
313.1 K, 24998 kPa | 667.58 | 0.3504
313.1 K, 28001 kPa | 670.32 | 0.3631
313.1 K, 30004 kPa | 672.03 | 0.37
333 K, 2004 kPa | 624.85 | 0.2192
333 K, 4002 kPa | 627.59 | 0.226
333 K, 6003 kPa | 630.29 | 0.2328
333 K, 8005 kPa | 632.82 | 0.2396
333 K, 10008 kPa | 635.78 | 0.2467
333 K, 12998 kPa | 639.36 | 0.2565
333 K, 16002 kPa | 642.74 | 0.2667
333 K, 19000 kPa | 646.04 | 0.2766
333 K, 21993 kPa | 649.32 | 0.2863
333 K, 25001 kPa | 652.41 | 0.296
333 K, 28000 kPa | 655.31 | 0.3058
333 K, 30005 kPa | 657.29 | 0.3128
353.14 K, 4001 kPa | 608.43 | 0.1911
353.14 K, 8003 kPa | 614.97 | 0.203
353.14 K, 15997 kPa | 625.92 | 0.2264
353.14 K, 21998 kPa | 633.46 | 0.2438
353.15 K, 2003 kPa | 605.15 | 0.1848
353.15 K, 5997 kPa | 611.57 | 0.197
353.15 K, 10009 kPa | 618 | 0.2091
353.15 K, 13000 kPa | 622.08 | 0.2179
353.15 K, 19000 kPa | 629.87 | 0.2352

CCCCCO [pentan-1-ol]
Details | mass density, 298.15 K [kg/m3] | mass density, 323.15 K [kg/m3] | viscosity, 298.15 K [mPa·s] | viscosity, 323.15 K [mPa·s]
1999 kPa | – | 794.19 | – | 1.835
2003 kPa | 811.93 | – | 3.593 | –
3999 kPa | 813.3 | – | 3.661 | –
4001 kPa | – | 795.77 | – | 1.868
6001 kPa | – | 797.32 | – | 1.903
6003 kPa | 814.64 | – | 3.731 | –
8000 kPa | – | 798.83 | – | 1.937
8005 kPa | 815.96 | – | 3.799 | –
9998 kPa | – | 800.31 | – | 1.972
10001 kPa | 817.26 | – | 3.867 | –
12999 kPa | – | 802.47 | – | 2.025
13000 kPa | 819.15 | – | 3.972 | –
16001 kPa | – | 804.56 | – | 2.078
16004 kPa | 821 | – | 4.08 | –
19002 kPa | – | 806.59 | – | 2.134
19006 kPa | 822.8 | – | 4.19 | –
22000 kPa | 824.56 | – | 4.301 | –
22001 kPa | – | 808.56 | – | 2.19
24998 kPa | 826.27 | – | 4.41 | –
25002 kPa | – | 810.48 | – | 2.245

O [water]
Details | mass density [kg/m3] | viscosity [mPa·s]
293.36 K, 2061 kPa | 999.51 | 0.9917
293.36 K, 4085 kPa | 999.98 | 0.9931
293.37 K, 7118 kPa | 1001.28 | 0.9928
293.37 K, 26278 kPa | 1010.35 | 0.9863
293.38 K, 11158 kPa | 1003.59 | 0.9898
293.38 K, 17210 kPa | 1006.18 | 0.9897
293.38 K, 20234 kPa | 1006.98 | 0.988
293.38 K, 23255 kPa | 1008.25 | 0.9883
313.08 K, 4076 kPa | 994.07 | 0.6535
313.08 K, 7109 kPa | 995.47 | 0.6538
313.08 K, 11150 kPa | 996.66 | 0.6546
313.08 K, 14177 kPa | 997.99 | 0.655
313.08 K, 17203 kPa | 999.9 | 0.6552
313.08 K, 20228 kPa | 1000.99 | 0.6557
313.08 K, 23250 kPa | 1001.91 | 0.6559
313.08 K, 26271 kPa | 1003.18 | 0.6562
313.08 K, 29788 kPa | 1004.77 | 0.6586
313.09 K, 2053 kPa | 992.98 | 0.6538
332.85 K, 14173 kPa | 989.5 | 0.4707
332.85 K, 17195 kPa | 990.83 | 0.4712
332.85 K, 20214 kPa | 991.48 | 0.4725
332.85 K, 26252 kPa | 994.06 | 0.4751
332.86 K, 4081 kPa | 984.88 | 0.4685
332.86 K, 7113 kPa | 985.99 | 0.4685
332.86 K, 11150 kPa | 988.22 | 0.47
352.57 K, 4073 kPa | 973.51 | 0.3574
352.58 K, 2044 kPa | 972.64 | 0.3565
352.58 K, 7107 kPa | 975.4 | 0.3582
352.59 K, 11142 kPa | 977 | 0.3592
352.59 K, 14161 kPa | 977.85 | 0.36
352.6 K, 17181 kPa | 979.13 | 0.361
352.6 K, 20194 kPa | 980.96 | 0.3617
352.6 K, 23203 kPa | 982.36 | 0.3627
352.6 K, 26211 kPa | 983.69 | 0.3638
352.6 K, 29715 kPa | 984.92 | 0.3648
